The results in this text go back to patent US5449592A, “Silver halide color photographic light sensitive material for color proof and method for preparing color proof using the same” (Konica Corporation, priority 1988, dated 1995).

The first data set is described as follows: pKa of couplers, spectrophotometric method. The data set is classed as physicochemical. To be noted: spectrophotometric method (no asterisk); 2-butoxyethanol and water (30:70). The source says: (§1) In this invention, a pKa value means a common logarithmic value of the reciprocal of a proton-dissociation equilibrium constant K at the active site of a coupler.
As described in, for example, J.C.S., Perkin I, 809(1973) and 1768(1973), J. Phot. Sci., 22,49(1974), E. Pelizzrtti(3M, Italia), C. Saini(Toino Vniv.) and J. Phot. Sci., 13,248(1985) B. P. Brand (ICI), a pKa value can be measured in a spectrophotometric method or a neutralization-titration mehtod, using a suitable solvent such as a mixture of water and organic solvent.
In the spectrophotometric method, a pka value of coupler is regarded as a pH value obtained in correspondence with the inflection point of a rerational curve obtained between the pH and absorbance of a coupler solution, utilizing the fact that there is a difference in absorbance between the coupler itself and the anion thereof.
To be more concrete, the above-mentioned coupler solution is prepared by the use of a mixture of 2-butoxyethanol and water (30:70) as a solvent. The concentration of the coupler solution is adjusted to the order of 1×10^-5 to 1×10^-2 M so that pKa values can readily be measured. The coupler solution is added with anhydrous potassium carbonate in an amount of 3 g per liter, and is further adjusted to be various pH values by adding hydrochloric acid and potassium hydroxide correspondingly. The spectral absorbance of each solution is then measured so as to obtain a relational curve made between the pH value and the spectral absorbance of each solution.
Certain of couplers have plural dissociable protons. In those cases, plural pKa values may be obtained. Among those values, however, each pKa value of this invention means a value measured in relation to making anionic the nucleus of a coupler capable of forming a dye upon coupling reaction with the oxidized product of a color developing agent.
Either of the above-described two measurement methods may be so selected out as to meet the characteristics of a coupler subjected to a measurement. When measuring one and the same coupler in the two methods, respectively, there are some differences between the resulted pKa values. Howerer, the difference in pKa value between a magenta coupler and yellow coupler used in the invention, i.e., a value of pKa 1-pKa 2, can be applied to the invention, provided that both of the pKa1 and pKa2 values are measured in one and the same method of the two.
In Table 1, pKa values with asterisks are values measured by the neutralization-titration method. The other valves without asterisk are measured by the spectrophotometric method.
Asterisks in Table 2 have the same mean as in Table 1.
The term pKa denotes the negative logarithm of the acid dissociation constant. `CCC(C)(C)c1ccc(OCCCC(=O)Nc2ccc(Cl)c(NC(=O)C(Oc3ccc(S(=O)(=O)c4ccc(OCc5ccccc5)cc4)cc3)C(=O)C(C)(C)C)c2)c(C(C)(C)CC)c1` (stereo not drawn) [Y-8] showed a pKa of 8.60. Same read-out and setting: the value for `CCCCOc1ccc(NS(=O)(=O)c2cc(C(C)(C)CC(C)(C)C)ccc2OCCCC)cc1S(=O)(=O)Nc1ccc(CCCc2n[nH]c3c(Cl)c(C(C)(C)C)nn23)cc1` [M-44] was 10.80; that for `CCCCOc1ccc(C(C)(C)CC(C)(C)C)cc1Sc1c(SCC)nn2c(CCNC(=O)C(CCCC)Oc3ccc(C(C)(C)CC)cc3C(C)(C)CC)n[nH]c12` (stereo not drawn) [M-49] was 9.43; that for `CCCCCCCCCCCCOc1ccc(S(=O)(=O)Nc2ccc(CCCc3n[nH]c4c(Cl)c(C)nn34)cc2)cc1` [M-1] was 10.24. Still for that read-out and setting: the value for `CCCCOc1ccc(C(C)(C)CC(C)(C)C)cc1S(=O)(=O)CCCc1n[nH]c2c(Cl)c(C(C)C)nn12` [M-21] was 10.07.

In turn, `CCCCCCCCC(CCCCCC)CS(=O)(=O)CCc1n[nH]c2c(Cl)c(C)nn12` (stereo not drawn) [M-4] gave a pKa of 9.11. The same measure, in the same setting: with `CCCCOc1ccc(C(C)(C)CC(C)(C)C)cc1S(=O)(=O)CCCc1n[nH]c2c(Cl)c(C(C)(C)C)nn12` [M-33] the figure was 10.39; with `CCCCCCCCCCCCCCCCS(=O)(=O)CCC(C)c1n[nH]c2c(Cl)c(C(C)C)nn12` (stereo not drawn) [M-22], 9.70. Same read-out and setting: with `CCCCCCCCOc1ccc(C)cc1S(=O)(=O)CCS(=O)(=O)CCC(C)c1n[nH]c2c(Cl)c(C(C)C)nn12` (stereo not drawn) [M-26] the figure was 9.68.

Consider `CCCCCCCCCCCCCCCCCCS(=O)(=O)CC(C)c1n[nH]c2c(Cl)c(C)nn12` (stereo not drawn) [M-3], for which the pKa was determined as 8.99. Still for that read-out and setting: with `CCC(C)(C)c1ccc(OCC(=O)Nc2ccc(S(=O)(=O)CC(C)(C)c3n[nH]c4c(Cl)c(C(C)(C)C)nn34)cc2)c(C(C)(C)CC)c1` [M-40] the figure was 9.90; with `CCCCC(Oc1ccc(C(C)(C)CC)cc1C(C)(C)CC)C(=O)Nc1ccc(CCc2n[nH]c3c(Cl)c(CC)nn23)cc1` (stereo not drawn) [M-16], 10.30.

With `CCCCCCCCCCC(Oc1ccc(C(C)(C)c2ccc(O)cc2)cc1)C(=O)Nc1ccc(S(=O)(=O)CCc2n[nH]c3c(Cl)c(C)nn23)cc1` (stereo not drawn) [M-12], the pKa was found to be 9.71.

For the molecule `CCCCCCCCC(CCCCCC)CS(=O)(=O)CCc1nn2c(C)n[nH]c2c1Cl` (stereo not drawn) [M-9], the pKa is on record as 9.18.

A further data set in a line: pKa of couplers, neutralization-titration method. The format is physicochemical. To be noted: neutralization-titration method (asterisk).
Excerpt: as §1
As described in, for example, J.C.S., Perkin I, 809(1973) and 1768(1973), J. Phot. Sci., 22,49(1974), E. Pelizzrtti(3M, Italia), C. Saini(Toino Vniv.) and J. Phot. Sci., 13,248(1985) B. P. Brand (ICI), a pKa value can be measured in a spectrophotometric method or a neutralization-titration mehtod, using a suitable solvent such as a mixture of water and organic solvent. […]
Certain of couplers have plural dissociable protons. […] Among those values, however, each pKa value of this invention means a value measured in relation to making anionic the nucleus of a coupler capable of forming a dye upon coupling reaction with the oxidized product of a color developing agent.
Either of the above-described two measurement methods may be so selected out as to meet the characteristics of a coupler subjected to a measurement. […] Howerer, the difference in pKa value between a magenta coupler and yellow coupler used in the invention, i.e., a value of pKa 1-pKa 2, can be applied to the invention, provided that both of the pKa1 and pKa2 values are measured in one and the same method of the two.
In Table 1, pKa values with asterisks are values measured by the neutralization-titration method. […]
Consider `CCCCCCCCCCCCCC(=O)Nc1ccc(Cl)c(NC2=NN(c3c(Cl)cc(Cl)cc3Cl)C(=O)C2)c1` [MC-1], for which the pKa was 10.07.
